{"source": "patent US20030070691A1", "about": "“Biocide formation via ozonation” (priority 2000, published 2003)", "key": {"[1]": {"system": "Enterococcus faecium (Gram positive)", "experiment": "Biocidal test on dried cells on glass slides", "type": "cell-based", "method": "(§1) 0.1 milliliters of a 3×10^6 cfu/mL solution of bacteria cells harvested from a mid-log phase culture were placed on a glass microscope slide. The solution was allowed to dry for 2 hours leaving only cells on the surface. The slides were treated by immersing them in 10 mL of either: (i) sterile water; (ii) 10% ethanol in water; (iii) 10% ozonated ethanol in water; or (iv) 1% ozonated ethanol in water for either 5 or 20 seconds. Immediately after treatment the slides were removed from solution and immersed in 3-mL of a sterile saline solution and ultrasonicated for 10 minutes to dislodge the cells from the slide. The recovered cells were diluted, plated, and incubated at 37° C. overnight and colonies were counted to determine the number of survivors per slide. Initial recovery was determined using the above procedure but the treatment step was omitted."}, "[2]": {"system": "Klebsiella pneumoniae (Gram negative)", "experiment": "Biocidal test on dried cells on glass slides", "type": "cell-based", "method": "as §1"}, "[3]": {"settings": "at 20° C.; Handbook of Chemistry and Physics; cited from earlier work"}, "[4]": {"system": "Bacillus subtilis spores", "experiment": "Bacillus subtilis spore carrier disinfection test", "type": "cell-based", "settings": "30 minutes contact", "quoted_text": "Preparation of carriers. In each of the following examples, the disinfection solutions were evaluated using spores of Bacillus subtilis. Spores were placed onto glass carriers formed by cutting microscope slides in half lengthways. Slides were placed in a culture tube that was capped and sterilized prior to inoculation with spores. A total of 0.1 mL of a spore suspension containing 10% bovine serum albumin by weight was placed onto a small area near one end of the slide. Approximately 20 μL (microliters) of spore suspension was added at a time for 5 times, allowing each 20μL amount to dry between additions. Heat drying was performed by briefly holding the slide over a flame. The heat-fixed culture was stored in the refrigerator until needed for up to, but no longer than, 5 days.\nDisinfection of carriers. In the following examples, three vials were prepared, each containing 200 mL of the disinfectant composition to be evaluated. One spore carrier was placed into each vial. The spore carriers were held in the disinfection solutions for 30 minutes. After contacting was complete, the carriers were removed from the disinfection solutions using forceps and rinsed with sterile saline.\nSpore recovery and enumeration. After rinsing, each of the slides was placed in a sterile tube containing 2 mL of saline. […] Invert plates were incubated at 37° C. and counted after 24 hours. […]"}, "[5]": {"settings": "neutral aqueous solution, cited from earlier work"}, "[6]": {"experiment": "Dissolved ozone concentration by indigo colorimetric method", "type": "physicochemical", "settings": "for dissolved ozone concentration: ozonated 5 minutes, 10 wt % ozone gas", "method": "Solutions containing varying amounts of acetic acid were saturated with ozone. Solutions were prepared containing 50%, 75%, 90%, 95%, and 99% by volume acetic acid in water. In separate experiments, 100 mL of the above solutions were placed in 250 mL round bottom flasks fitted with a ground glass top. The top contained two fittings that permitted gas flow in through one fitting and gas flow out through the other. A mixture of ozone and oxygen was delivered from Lynntech's Model 124 Electrochemical Ozone generator to the solution through a stainless steel gas diffusing stone. The flow rate was approximately 1,000 mL of gas per minute, and the concentration of ozone was 10% by weight. The solutions were ozonated for 5 minutes and the concentration of dissolved ozone was determined by the indigo calorimetric method. An additional solution of 100 mL of deionized water and a solution of 100 mL of glacial acetic acid were also ozonated.\nThe concentration of dissolved ozone was determined by the indigo colorimetric method. An indigo stock solution was prepared by adding 500 mL of deionized water and 1 mL of phosphoric acid to a 1 L volumetric flask. 770 mg of potassium indigo trisulfonate was added to the flask, and stirring was continued until the dye was completely dissolved. The flask was filled to the mark with deionized water. A working indigo solution was prepared by adding 20 mL of indigo stock solution, 10 g of sodium dihydrogen phosphate (NaH2PO4), and 7 mL of concentrated phosphoric acid to a 1 L volumetric flask. The flask was filled to the mark with deionized water. The concentration of ozone in solution was determined by adding an aliquot of ozonated solution (typically 30 μL) to 3 mL of working indigo solution in a 1 cm path-length quartz cuvette. The cuvette was capped with a piece of Parafilm® (American National Can Company, Chicago, Ill.) and inverted a few times to mix the solutions. As a blank, the same volume the equivalent non-ozonated solution was added to 3 mL of working indigo solution in a matched cuvette and mixed. […] The absorbance at 600 nm was measured to provide the difference in absorbance between the blank and the sample. […]\nwhere ΔA is the difference in absorbance between the sample and the blank, b is the path-length of the cuvette, Vw is the volume of working indigo solution, Vs is the volume of sample, and f is 0.42. f is based on a sensitivity factor of 20,000/cm for the change in absorbance at 600 nm per mole of ozone added per liter. […]\n200 mL of 81% acetic acid by volume (in DI water) water was ozonated in a glass flask. […] At the same time a liquid sample was withdrawn from the beaker and its ozone concentration measured by the method described above. […]"}, "[7]": {"experiment": "Stability of ozonated ethanol solutions over 72 hours", "type": "physicochemical", "settings": "ethanol (99 vol. %) ozonated 4 hours at 22° C.; 72-hour period", "method": "The first step was the titration of hydrogen peroxide with ceric sulfate. A small amount of the peracetic acid solution (0.25 mL) was placed in 100 mL of ice-cold 1 N H2SO4 to which was also added three drops of ferroin indicator (Aldrich Chemical Company, Milwaukee, Wis.). The faint pink colored solution was then titrated with 0.1 M Ce(SO4)2 until the colorless endpoint was reached. Because cerium(IV) has a higher oxidation potential than hydrogen peroxide, hydrogen peroxide was oxidized to protons and molecular oxygen according the stoichiometry shown in the following reaction:\n5 mL of 0.18 M KI was added to the solution and the mixture was stirred for 30 seconds. The solution was then placed in the dark for 30 minutes. After the 30-minute reaction time, the solution was yellowish brown and the color was proportional to the amount of peracetic acid originally present in the solution. The brown color was produced by oxidation of the colorless iodide anion (I^−) to the brown-colored iodine (I2) molecule by peracetic acid as shown in the following reaction: […]\nExperiments were done to determine the stability of ozonated ethanol solutions over a 72-hour period. Ethanol (99 vol. %) was ozonated for 4 hours at 22° C. and the amount of AMP and peracetic acid was measured as a function of time over the next three days. […]"}, "[8]": {"settings": "5-second contact time, Log10 Start 4.9, Table 4"}, "[9]": {"settings": "20-second contact time, Log10 Start 5.4, Table 3"}, "[10]": {"settings": "20-second contact time, Log10 Start 7.4, Table 7"}, "[11]": {"settings": "5-second contact time, Log10 Start 5.3, Table 6"}, "[12]": {"settings": "20-second contact time, Log10 Start 4.8, Table 5"}, "[13]": {"settings": "20-second contact time, Log10 Start 6.3, Table 8"}}, "note": "“And” between values parts separate entries of the source, which are not always exact repeats. Identical values can stand only once. Like-named read-outs stand apart in the source and are kept apart here.", "data": [{"molecule": "CCO", "note": "[10 vol. % Ethanol in Water (control), Ethanol]", "values": [{"measurement": "Log10 Recovered", "setting": "[1]; [8]", "value": 4.3, "unit": "Log10"}, {"measurement": "Log10 Reduction", "setting": "[1]; [8]", "value": 0.6, "unit": "Log10"}, {"measurement": "Log10 Recovered", "setting": "[1]; [9]", "value": 5.2, "unit": "Log10"}, {"measurement": "Log10 Reduction", "setting": "[1]; [9]", "value": 0.2, "unit": "Log10"}, {"measurement": "Log10 Recovered", "setting": "[1]; [10]", "value": 4.5, "unit": "Log10"}, {"measurement": "Log10 Reduction", "setting": "[1]; [10]", "value": 2.9, "unit": "Log10"}, {"measurement": "Log10 Recovered", "setting": "[2]; [11]", "value": 3.3, "unit": "Log10"}, {"measurement": "Log10 Reduction", "setting": "[2]; [11]", "value": 2.0, "unit": "Log10"}, {"measurement": "Log10 Recovered", "setting": "[2]; [12]", "value": 4.3, "unit": "Log10"}, {"measurement": "Log10 Reduction", "setting": "[2]; [12]", "value": 0.5, "unit": "Log10"}, {"measurement": "Log10 Recovered", "setting": "[2]; [13]", "value": 6.4, "unit": "Log10"}, {"measurement": "Log10 Reduction", "setting": "[2]; [13]", "value": "−0.1", "unit": "Log10"}]}, {"molecule": "CCCC(=O)O", "note": "[butyric acid]", "values": [{"measurement": "published ionization constant", "setting": "[3]", "value": 4.81}]}, {"molecule": "CC(=O)O", "note": "[non-ozonated 81% acetic acid, acetic acid]", "values": [{"measurement": "log reduction in viable spores, best achieved", "setting": "[4]; Example 11", "value": "≤ 2.87", "unit": "log"}, {"measurement": "sporicidal / disinfection activity in words", "setting": "[4]; glass carriers, spores in 10% bovine serum albumin", "value": "relatively ineffective"}]}, {"molecule": "O=[O+][O-]", "note": "[ozone]", "values": [{"measurement": "Ozone Concentration (solubility)", "setting": "[5]; 0° C.", "value": "35 (ppm)"}, {"measurement": "Ozone Concentration (solubility)", "setting": "[5]; 20° C.", "value": 21, "unit": "ppm"}, {"measurement": "Ozone Concentration (solubility)", "setting": "[5]; 40° C.", "value": 4, "unit": "ppm"}, {"measurement": "Ozone Concentration (solubility)", "setting": "[5]; 60° C.", "value": 0, "unit": "ppm"}, {"measurement": "initial ozone concentration at the time the spore carriers were immersed", "setting": "[6]; in 81% acetic acid ozonated 10 minutes", "value": "125 ppm and 175 ppm"}, {"measurement": "dissolved ozone concentration", "setting": "[6]; in DI water", "value": "about 30 ppm"}, {"measurement": "initial ozone concentration", "setting": "[6]; in ozonated DI water, Example 11", "value": "≤ 31", "unit": "ppm"}, {"measurement": "dissolved ozone concentration", "setting": "[6]; in pure acetic acid", "value": "greater than 400 ppm"}]}, {"molecule": "CC(=O)OO", "note": "[peracetic acid]", "values": [{"measurement": "concentration in solution over time", "setting": "[7]", "value": "constant"}]}, {"molecule": "acetaldehyde monoperacetate [AMP]", "values": [{"measurement": "concentration in solution over time", "setting": "[7]", "value": "decreases considerably"}]}]}
